Laboratory results from ChEMBL document CHEMBL5365535, “Selenoneine-inspired selenohydantoins with glutathione peroxidase-like activity” (Bioorg Med Chem, 2023).
Activity calls are given as the source filed them. The rule behind the calls is not given here.

Tests used:
[1] = Glutathione peroxidase-like activity assessed as decrease in NADPH level at 20 uM in the presence of H2O2 and glutathione reductase by UV-VIS spectrophotometer analysis (reference value: 37 microM/min); assay type: physicochemical
[2] = Antioxidant activity assessed as FRAP radical scavenging activity by measuring reduction of Fe3+ complex to Fe2+ analogue incubated for 5 mins by FRAP assay; assay type: functional; parameters: reference not given here
[3] = Glutathione peroxidase-like activity assessed as time to reach completion of the linear part at 20 uM in presence of H2O2 by UV-VIS spectrophotometer analysis; assay type: physicochemical
[4] = Cytotoxicity against HuAoSMC cells assessed as metabolic activity at below 100 uM incubated for 24 hrs by MTT assay; assay type: toxicity, cell-based; conditions: human, read-out: Activity
[5] = Glutathione peroxidase-like activity assessed as decrease in NADPH level at 20 uM in the presence of cumene hydroperoxide and glutathione reductase by UV-VIS spectrophotometer analysis (reference value: 7 microM/min); assay type: physicochemical
[6] = Glutathione peroxidase-like activity assessed as time to reach completion of the linear part at 20 uM in presence of cumene hydroperoxide by UV-VIS spectrophotometer analysis; assay type: physicochemical
[7] = Antioxidant activity assessed as DPPH radical scavenging activity incubated for 60 min by DPPH assay; assay type: functional
[8] = Antioxidant activity assessed as rate constant; assay type: functional
[9] = Antioxidant activity assessed as time to reach reaction completion; assay type: functional
[10] = Antioxidant activity assessed as anti-radical efficiency; assay type: functional
[11] = Cytotoxicity against HuAoSMC cells assessed as metabolic activity at 1 uM incubated for 24 hrs by MTT assay; assay type: toxicity, cell-based; conditions: human

## Cc1ccc(CC2NC(=[Se])NC2=O)cc1 (configuration not stated)
[1]
  Activity: 55 µM/min
[2]
  Activity: 116 µM
[3]
  Time: 107 s
[4]
  viability at 24 h, 100 µM: > 70%
[5]
  Activity: 18 µM/min
[6]
  Time: 367 s
[7]; read-out: EC50
  EC50: 89 µM

## N[C@@H](CCC(=O)N[C@@H](CS)C(=O)NCC(=O)O)C(=O)O [GLUTATHIONE]
[8]
  K: 0.53 s⁻¹
[9]
  TIME: 0.483 h
[2]
  Activity: 94 µM
[10]
  Activity: 0.69 10^-3/min/µM
[7]; read-out: EC50
  EC50: 50 µM

## NCC[Se][Se]CCN
[1]
  Activity: 53 µM/min
[3]
  Time: 153 s
[11]
  Activity: Toxic
[5]
  Activity: 66 µM/min
[6]
  Time: 93 s

## O=C1NC(=[Se])NC1Cc1ccc(F)cc1 (configuration not stated)
[1]
  Activity: 57 µM/min
[8]
  K: 0.89 s⁻¹
[9]
  TIME: 0.4 h
[2]
  Activity: 439 µM
[3]
  Time: 107 s
[4]
  viability at 24 h, 100 µM: > 70%
[10]
  Activity: 1.05 10^-3/min/µM
[5]
  Activity: 13 µM/min
[6]
  Time: 460 s
[7]; read-out: EC50
  EC50: 39 µM

## O=c1c2ccccc2[se]n1-c1ccccc1 [EBSELEN]
[1]
  Activity: 75 µM/min
[2]
  Activity: inactive
[3]
  Time: 80 s
[5]
  Activity: 33 µM/min
[6]
  Time: 187 s
[7]
  EC50: Not Active

## O=C1NC(=[Se])NC1Cc1ccc(Cl)cc1 (configuration not stated)
[1]
  Activity: 54 µM/min
[8]
  K: 2.28 s⁻¹
[9]
  TIME: 0.183 h
[2]
  Activity: 421 µM
[3]
  Time: 113 s
[4]
  viability at 24 h, 100 µM: > 70%
[10]
  Activity: 2.1 10^-3/min/µM
[5]
  Activity: 27 µM/min
[6]
  Time: 253 s
[7]; read-out: EC50
  EC50: 44 µM

## COc1ccc(CC2NC(=[Se])NC2=O)cc1 (configuration not stated)
[1]
  Activity: 49 µM/min
[8]
  K: 1.2 s⁻¹
[9]
  TIME: 0.3 h
[2]
  Activity: 314 µM
[3]
  Time: 140 s
[4]
  viability at 24 h, 100 µM: > 70%
[10]
  Activity: 1.4 10^-3/min/µM
[5]
  Activity: 13 µM/min
[6]
  Time: 467 s
[7]; read-out: EC50
  EC50: 38 µM

## O=C1O[C@H]([C@@H](O)CO)C(O)=C1O [ASCORBIC ACID]
[2]
  Activity: 1630 µM
[7]; read-out: EC50
  EC50: 17.8 µM

## O=C1NC(=[Se])NC1Cc1ccc(C(F)(F)F)cc1 (configuration not stated)
[1]
  Activity: 63 µM/min
[8]
  K: 1.6 s⁻¹
[9]
  TIME: 0.233 h
[2]
  Activity: 363 µM
[3]
  Time: 100 s
[4]
  viability at 24 h, 100 µM: > 70%
[10]
  Activity: 2.1 10^-3/min/µM
[5]
  Activity: 32 µM/min
[6]
  Time: 180 s
[7]; read-out: EC50
  EC50: 35 µM

## O=C1NC(=[Se])NC1Cc1ccccc1 (configuration not stated)
[1]
  Activity: 55 µM/min
[8]
  K: 0.46 s⁻¹
[9]
  TIME: 0.7 h
[2]
  Activity: 219 µM
[3]
  Time: 113 s
[4]
  viability at 24 h, 100 µM: > 70%
[10]
  Activity: 0.63 10^-3/min/µM
[5]
  Activity: 18 µM/min
[6]
  Time: 413 s
[7]; read-out: EC50
  EC50: 37 µM

## O=C1NC(=[Se])NC1Cc1cccc2ccccc12 (configuration not stated)
[1]
  Activity: 39 µM/min
[8]
  K: 0.84 s⁻¹
[9]
  TIME: 0.367 h
[2]
  Activity: 271 µM
[3]
  Time: 187 s
[4]
  viability at 24 h, 100 µM: > 70%
[10]
  Activity: 1 10^-3/min/µM
[5]
  Activity: 18 µM/min
[6]
  Time: 360 s
[7]; read-out: EC50
  EC50: 44 µM

## O=C1NC(=[Se])NC1Cc1ccc(Br)cc1 (configuration not stated)
[1]
  Activity: 51 µM/min
[2]
  Activity: 180 µM
[3]
  Time: 127 s
[4]
  viability at 24 h, 100 µM: > 70%
[5]
  Activity: 17 µM/min
[6]
  Time: 393 s
[7]; read-out: EC50
  EC50: 60 µM
